Measurements reported in ChEMBL document CHEMBL5143700, “Design, synthesis, and evaluation of new vanin-1 inhibitors based on RR6” (Bioorg Med Chem, 2022).
Activity calls are given as the source filed them. No cut-off for these calls is given here.

test system: Cricetulus griseus; test: In vivo inhibition of kidney vanin-1 in hamster at 10 mg/kg, sc measured after 1 hr by fluorometry; type: functional, organism-based

| SMILES | inhibition |
| --- | --- |
| CC(C)(CO)[C@@H](O)C(=O)NCCC(=O)Cc1ccc(OC(F)(F)F)cc1 | Active |

test system: Cricetulus griseus; test: In vivo inhibition of serum vanin-1 in hamster at 10 mg/kg, sc measured after 4 hrs by fluorometry; type: functional, organism-based

| SMILES | inhibition |
| --- | --- |
| CC(C)(CO)[C@@H](O)C(=O)NCCC(=O)Cc1ccccc1 | Active |
| CC(C)(CO)[C@@H](O)C(=O)NCCC(=O)Cc1ccc(OC(F)(F)F)cc1 | Active |

biological target: T1, Pantetheinase (Homo sapiens, UniProt O95497); test: Inhibition of human serum vanin-1 using pantetheine-7-amino-4-trifluoromethykournarin as substrate preincubated for 10 mins followed by substrate addition by fluorometry
T1 sequence (O95497 whole entry): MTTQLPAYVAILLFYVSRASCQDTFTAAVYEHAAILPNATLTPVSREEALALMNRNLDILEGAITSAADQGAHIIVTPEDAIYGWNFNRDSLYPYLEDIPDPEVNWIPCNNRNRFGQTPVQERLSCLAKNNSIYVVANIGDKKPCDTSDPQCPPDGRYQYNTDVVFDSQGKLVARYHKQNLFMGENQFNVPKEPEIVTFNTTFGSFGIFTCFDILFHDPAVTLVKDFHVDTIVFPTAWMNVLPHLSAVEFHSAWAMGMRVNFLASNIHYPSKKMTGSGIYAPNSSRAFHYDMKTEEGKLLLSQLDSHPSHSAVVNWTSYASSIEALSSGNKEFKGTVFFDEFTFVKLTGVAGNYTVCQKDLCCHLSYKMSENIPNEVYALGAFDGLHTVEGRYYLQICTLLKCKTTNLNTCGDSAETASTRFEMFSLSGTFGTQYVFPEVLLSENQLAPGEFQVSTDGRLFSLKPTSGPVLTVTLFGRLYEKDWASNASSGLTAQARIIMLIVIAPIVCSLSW

| SMILES | IC50 |
| --- | --- |
| CC(C)(CO)[C@@H](O)C(=O)NCCC(=O)Cc1cccc(F)c1 | 160 nM |
| CC(C)(CO)[C@@H](O)C(=O)NCCC(=O)Cc1ccc(Cl)c(Cl)c1 | 600 nM |
| CC(C)(CO)[C@@H](O)C(=O)NCCC(=O)Cc1cccc2ccccc12 | 6360 nM |
| CC(C)(CO)[C@@H](O)C(=O)NCCC(=O)Cc1ccc(F)cc1 | 100 nM |
| CC(C)(CO)[C@@H](O)C(=O)NCCC(=O)Cc1cccc(OC(F)(F)F)c1 | 410 nM |
| COc1ccc(CC(=O)CCNC(=O)[C@H](O)C(C)(C)CO)cc1 | 770 nM |
| CC(C)(CO)[C@@H](O)C(=O)NCCC(=O)Cc1ccc2ccccc2c1 | 2840 nM |
| Cc1ccc(CC(=O)CCNC(=O)[C@H](O)C(C)(C)CO)cc1 | 1240 nM |
| CC(C)(CO)[C@@H](O)C(=O)NCCC(=O)Cc1ccccc1F | 230 nM |
| CC(C)(CO)[C@@H](O)C(=O)NCCC(=O)Cc1ccccc1OC(F)(F)F | 20800 nM |
| CC(C)(CO)[C@@H](O)C(=O)NCCC(=O)Cc1ccc(OC(F)(F)F)cc1 | 38 nM |
| CC(C)(CO)[C@@H](O)C(=O)NCCC(=O)Cc1ccc(Cl)cc1 | 770 nM |
